# Test results published in ChEMBL document CHEMBL5331078, “1-Benzyloxy-5-phenyltetrazole derivatives highly active against androgen receptor-dependent prostate cancer cells” (Eur J Med Chem, 2023).
# Experiments:
# PC-3 = experiment: Antiproliferative activity against human PC-3 cells measured after 3 days by celltiter-glo luminescence assay; assay type: functional, cell-based; details: PC-3, 72 h
# CWR22R = experiment: Antiproliferative activity against AR-v7 positive human 22Rv1 cells measured after 3 days by celltiter-glo luminescence assay; assay type: functional, cell-based
# [1] = Antiproliferative activity against Ar-luc mouse Adipose stromal cell measured after 3 days by celltiter-glo luminescence assay; assay type: toxicity, cell-based; details: Ar-luc mouse adipose stromal cells
# [2] = Metabolic stability in mouse liver microsomes assessed as intrinsic clearance incubated for 60 mins in presence of NADPH-regenerating system; assay type: ADME, Microsome; details: microsomes, 1 h
# [3] = Partition coefficient, logD of the compound at pH 7.4 by HPLC analysis; assay type: physicochemical; details: octanol/water
# [4] = Kinetic solubility of the compound in 0.01 M HCl at pH 2 after 30 mins by nephelometry; assay type: physicochemical; details: read-out: Kinetic_solubility
# [5] = Kinetic solubility of the compound in phosphate buffer at pH 6.5 after 30 mins by nephelometry; assay type: physicochemical; details: read-out: Kinetic_solubility
# [6] = Metabolic stability in mouse liver microsomes assessed as half life incubated for 60 mins in presence of NADPH-regenerating system; assay type: ADME, Microsome; details: microsomes, 1 h
# Papain = target: T1, Papain (Carica papaya, UniProt P00784); experiment: Inhibition of papaya papain protease activity assessed as covalent binding mode of action at 10 uM incubated for 30 mins by absorbance based analysis; details: 0.5 h
# T1 sequence (P00784 whole entry): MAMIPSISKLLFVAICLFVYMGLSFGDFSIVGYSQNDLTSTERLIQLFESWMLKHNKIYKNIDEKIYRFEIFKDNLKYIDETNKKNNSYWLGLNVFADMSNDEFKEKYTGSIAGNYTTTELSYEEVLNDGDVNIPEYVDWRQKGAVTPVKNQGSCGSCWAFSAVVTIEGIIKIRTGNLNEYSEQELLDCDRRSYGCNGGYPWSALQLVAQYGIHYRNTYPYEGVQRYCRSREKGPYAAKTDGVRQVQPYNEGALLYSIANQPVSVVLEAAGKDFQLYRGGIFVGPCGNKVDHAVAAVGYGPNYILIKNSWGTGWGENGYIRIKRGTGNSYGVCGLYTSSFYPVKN
# [7] = Homo sapiens, 22Rv1, 72 h, read-out: IC50
SMILES,IC50 (PC-3),IC50 (CWR22R; [7]),IC50 at 3 days [1],further results
Clc1cccc(COn2nnnc2-c2cccc(Cl)c2)c1,> 100 µM,36 nM,10.6 µM,–
Clc1ccc(-c2nnnn2OCc2ccc(Br)cc2)cc1,52.1 µM,23 nM,13.8 µM,–
Clc1ccc(COn2nnnc2-c2cccc(Cl)c2)cc1,> 100 µM,2030 nM,36.3 µM,–
Fc1cccc(COn2nnnc2-c2ccc(Cl)cc2)c1,> 100 µM,12 nM,2.6 µM,–
CC(C)(On1nnnc1-c1ccc(Cl)cc1)c1ccc(Cl)cc1,–,> 10000 nM,–,–
Fc1ccc(-c2nnnn2OCc2ccnc(Cl)c2)cc1,> 100 µM,500 nM,15 µM,–
Clc1ccc(/C=N\OCc2ccc(Cl)cc2)cc1,> 10 µM,> 10000 nM,–,–
Clc1ccc(On2nnnc2-c2ccc(Cl)cc2)cc1,> 10 µM,> 10000 nM,–,–
Clc1ccc(-c2nnnn2OCc2ccc(Cl)nc2)cc1,> 100 µM,391 nM,3 µM,–
Fc1ccc(-c2nnnn2OCc2ccc(Cl)c(Cl)c2)cc1,> 100 µM,66 nM,23.4 µM,–
Clc1ccc(-c2nnnn2OCc2ccnc(Cl)c2)cc1,14.2 µM,22 nM,7 µM,–
COc1ccc(COn2nnnc2-c2ccc(OC)cc2)cc1,> 10 µM,9100 nM,–,–
Fc1ccc(-c2nnnn2OCc2ccc(Cl)s2)cc1,> 100 µM,3750 nM,> 100 µM,–
Fc1ccc(-c2nnnn2OCCc2ccc(Cl)cc2)cc1,–,> 10000 nM,–,–
Clc1cccc(COn2nnnc2-c2cccnc2)c1,> 10 µM,3550 nM,–,–
COc1ccc(COn2nnnc2-c2ccc(Cl)cc2)cc1,> 10 µM,> 10000 nM,–,–
Clc1ccc(-c2nnnn2OCc2ccc(Cl)c(Cl)c2)cc1,> 60 µM,100 nM,> 60 µM,–
Cc1nn(C)c(Cl)c1-c1nnnn1OCc1ccc(Cl)cc1,–,–,–,IC50 (CWR22R; cwr22r): Not Active
Clc1ccc(CCn2nnnc2-c2ccc(Cl)cc2)cc1,–,> 10000 nM,–,–
Fc1ccc(-c2nnnn2OC(F)(F)c2ccc(Cl)cc2)cc1,> 10 µM,> 10000 nM,–,–
Clc1ccc(-c2nnnn2OCC2CCCCC2)cc1,> 10 µM,> 10000 nM,–,–
Clc1ccc(-c2nnnn2OCc2ccc(Cl)s2)cc1,> 100 µM,131 nM,> 60 µM,–
FC(F)(F)c1cccc(COn2nnnc2-c2ccc(Cl)cc2)c1,16.8 µM,261 nM,4.9 µM,–
Fc1ccc(-c2nnnn2OCc2cccc(Cl)c2)cc1,> 100 µM,76 nM,> 60 µM,–

SMILES,IC50 (PC-3),IC50 (CWR22R; [7]),IC50 at 3 days [1],further results
COc1ccc(-c2nnnn2OCc2cccc(Cl)c2)cc1,> 100 µM,23 nM,6.8 µM,–
Clc1ccc(-c2nnnn2OCc2cccc(Br)c2)cc1,> 100 µM,66 nM,> 100 µM,–
COc1ccc(-c2nnnn2OC(F)(F)c2ccccc2)cc1,> 10 µM,5410 nM,–,–
Clc1ccc(COn2nnnc2-c2ccc(Cl)cc2Cl)cc1,> 100 µM,3790 nM,> 100 µM,–
Fc1ccc(CO/N=C\c2ccc(Cl)cc2)cc1,> 10 µM,> 10000 nM,–,–
CC(On1nnnc1-c1ccc(Cl)cc1)c1ccc(Cl)cc1 (stereo not drawn),> 10 µM,1710 nM,–,–
CNC(=O)c1ccc(N2C(=S)N(c3ccc(C#N)c(C(F)(F)F)c3)C(=O)C2(C)C)cc1F [ENZALUTAMIDE],42 µM,36000 nM,–,–
Clc1ccc(-c2nnnn2OCC2CC2)cc1,> 10 µM,> 10000 nM,–,–
Clc1ccc(-c2nnnn2OCc2cccc(Cl)c2)cc1,6.79 µM,73 nM,> 60 µM,CLH [2]: 147 µL/min/mg; logD [3]: 4.5; solubility kinetic at 0.5 h [4]: < 1.6 µg/mL; solubility kinetic at 0.5 h [5]: < 1.6 µg/mL; t1/2 [6]: 147 min
FC(F)(F)c1cccc(COn2nnnc2-c2cccc(C(F)(F)F)c2)c1,> 10 µM,> 10000 nM,–,–
COc1ccc(-c2nnnn2OCc2ccc(Cl)cc2)cc1,30.2 µM,25 nM,22.9 µM,–
Clc1cccc(COn2nnnc2-c2ccc(Cl)cc2Cl)c1,> 100 µM,400 nM,> 100 µM,–
Fc1ccc(On2nnnc2-c2ccc(F)cc2)cc1,> 10 µM,> 10000 nM,–,–
Clc1ccc(-c2nnnn2OCc2ccccc2)cc1,0.566 µM,40 nM,–,–
Fc1ccc(On2nnnc2-c2ccc(Cl)cc2)cc1,> 10 µM,> 10000 nM,–,–
Cc1nn(C)c(Cl)c1-c1nnnn1OCc1cccc(Cl)c1,–,–,–,IC50 (CWR22R; cwr22r): Not Active
FC(F)(On1nnnc1-c1ccc(Cl)cc1)c1ccccc1,> 10 µM,> 10000 nM,–,inhibition (INH) (Papain): Not Active
CC(C)(c1ccc(Cl)cc1)n1nnnc1-c1ccc(Cl)cc1,–,> 10000 nM,–,–
Clc1ccc(COn2nnnc2-c2cccnc2)cc1,–,–,–,IC50 (CWR22R; cwr22r): Not Active
Fc1ccc(COn2nnnc2-c2ccc(Cl)cc2)cc1,25.7 µM,31 nM,5.4 µM,–
O=C(Nn1nnnc1-c1ccccc1)c1ccc(Cl)cc1,–,> 10000 nM,–,–
Clc1ccc(CCOn2nnnc2-c2ccc(Cl)cc2)cc1,–,> 10000 nM,–,–
Fc1ccc(-c2nnnn2OCc2ccc(Cl)cc2)cc1,47.4 µM,740 nM,> 100 µM,inhibition (INH) (Papain): Not Active
